Legend:
[1] = tested on: TYRP1 (+) human 624mel cells; test: Complement dependent cytotoxicity (CDC) assay; format: cell-based; details: for induction of CDC (in words): 624mel cells in vitro; for Human CDC (%): Table 4 summary, 624mel cells
Description: Wash human melanoma cell line 624mel 3 times and bring to a concentration of 10^6 viable cells/mL in a suitable media, such as AIM V Media (Invitrogen Life Technologies). […] Add low-Tox-M Rabbit complement (Cedarlane Labs, Westbury, N.Y.) diluted 1:5 in AIM V at 50 μl/well and incubate for 1 hr at 37° C. Count cells for viability with Trypan Blue (Invitrogen Life Technologies).

[2] = tested on: TYRP1 (+) human 624mel cells; test: Antibody dependent cellular cytotoxicity (ADCC) against human melanoma in vitro; format: cell-based; details: 624mel cells in vitro
Description: Collect and wash 624mel cells with a suitable media, such as AIM V media (Invitrogen Life Technologies) and plate the cells at a density of 10,000 cells /well in a 100 μL volume, in a 96-well Falcon U bottom plate. Add antibodies at 5 μg/mL in a 50 μL volume and incubate at 37° C. for 0.5 hr with target cells. Effector cells were added in a volume of 50 μL at various E:T (effector:target) ratios. Plates were further incubated for 4 hrs at 37° C. After incubation, plates were spun down at 800 g, and 100 μL of supernatants were gently transferred to 96 well flat bottom plates. Lactate dehydrogenase assay reagent was added as specified by the manufacturer (Roche) and plates were read at 490 nm. Controls in assay: Target Spontaneous and Target Maximum (by adding 50 μL of 4% triton).
Lysis is dependent on the effector to target concentration with lysis of 50% of target cells occurring at an E:T ratio of 100:1.

human SKmel23 cells = test: SKmel23 metastatic melanoma model (lung surface nodules); format: in vivo, nude mice; details: for reduced metastasis (percent inhibition of lung nodules): SKmel23 i.v., day 20
Description: (§1) For the following subcutaneous studies, tumor volumes are calculated by the formula [π/6(W1×W2×W2)], where W1 represents the largest tumor diameter and W2 represents the smallest tumor diameter. % T/C=100×(Treatment Volume/Initial Volume)/(Control Volume/Initial Volume). Statistical analysis is done using traditional p-value techniques. For the subcutaneous studies the p value is calculated based on the tumor volume of animals receiving the anti-TYPR antibody verses the tumor volume of the control animals. […] Statistical analysis is done using traditional p-value techniques. For the metastatic studies the p-value is calculated based on the nodules observed in the animals receiving the anti-TYPR antibody verses the nodules observed in the control animals.
(§2) B16BL6 is an aggressive and spontaneously arising murine melanoma. It forms lung metastases in nude mice after intravenous administration. Harvest, wash and resuspend cultured SKmel23 and B16BL6 cells melanoma cells in RPMI 1640 media (10% FBS heat inactivated).
Model 2: Inject 1×10^5 human SKmel23 cells intravenously. On the second day after the tumor injection, administer to mice anti-TYRP1 antibodies or control human IgG, according to two different dose concentrations (200 μg/mouse and 500 μg/mouse). Sacrifice mice on day 20, remove lungs, count lung surface nodules and calculate percent inhibition.
(§3) For the subcutaneous model, harvest, wash and resuspend cultured 624mel cells, in a 50/50 solution of Matrigel and RPMI 1640 media (10% FBS heat inactivated). Inject 2×10^6 624mel cells into the left flank of nude mice. When tumors reach 200 mm^3, treat mice with anti-TYRP1 antibodies, DTIC, or a combination of anti-TYRP1 antibodies and DTIC. Administer 40 mg/kg antibodies once per week. Administer DTIC 5 mg/kg once per week. Measure tumors with calipers twice a week and calculate % T/C. For metastatic model, harvest, wash and resuspend cultured SKmel23, 888mel and B16 melanoma cells, in RPMI 1640 media (10% FBS heat inactivated). Inject SKmel23, 888mel and B16 melanoma cells intravenously. On the second day after the tumor injection, administer to mice anti-TYRP1 antibodies or control human IgG. Sacrifice mice on day 20, remove lungs, count lung surface nodules and calculate percent inhibition.

Human FcR = Human FcR binding; details: Table 4 summary
624mel xenograft = test: 624mel subcutaneous xenograft model; format: in vivo, nude mice
Description: as §1
(§4) Harvest, wash and resuspend 624mel cultured cells in a 50/50 solution of Matrigel and RPMI 1640 media (10% FBS heat inactivated). For the subcutaneous tumor model, inject 2×10^6 cells subcutaneously into the left flank of nude mice. When tumors reach 200 mm^3, treat mice with anti-TYRP1 antibodies or control human IgG; administer antibodies 1 mg/mouse three times per week. Measure tumors with calipers twice a week and calculate % T/C. […] Tumor growth was inhibited and reached statistical significance at day 16 post initiation of antibody treatment (T/C=44%; P=0.01). […] Lysates of skins from different species are incubated with TA99 (5 μg/ml) for 2 hours at room temperature. The lysates are then precipitated with protein A and subjected to SDS-PAGE under reducing and non-reducing conditions using […]. After electrophoresis, the gels are transferred to PVDF membrane (Invitrogen Life Technologies). […] The blot is developed using a chemiluminescent substrate (KPL, Gaithersburg, Md.).
For the subcutaneous tumor model, harvest, wash and resuspend 624mel cultured cells in a 50/50 solution of Matrigel and RPMI 1640 media (10% FBS heat inactivated), then inject 2×10^6 624mel cells subcutaneously into the left flank of nude mice. […] Measure tumors with calipers twice a week and calculate % T/C. […]

SKmel28 xenografts = test: SKmel28 subcutaneous xenograft model; format: in vivo, nude mice
Description: as §1, §4
Mix Skmel28 cells in a 50/50 solution of Matrigel and RPMI 1640 media (10% FBS heat inactivated). Inject 2×10^6 cells subcutaneously into the left flank of nude mice. When tumors reach 200 mm^3, treat mice with anti-TYRP1 antibodies (6 mg/kg, 20 mg/kg, or 60 mg/kg) or control human IgG three times per week. Measure tumors with calipers twice a week and calculate % T/C. […] The anti-tumor effects at each dose were statistically significant: […] (T/C=50%; P=0.04), […] (T/C=19%; P<0.003).

B16BL6 murine melanoma = test: B16BL6 metastatic melanoma model (lung surface nodules); format: in vivo, nude mice; details: for Inhibition of lung metastases: B16BL6 i.v., day 20
Description: as §1, §2
Model 1: Inject 1×10^5 B16BL6 cells intravenously. On the second day after the tumor injection, administer to mice anti-TYRP1 antibodies or control human IgG, according to three different dose concentrations (200 μg/mouse, 500 μg/mouse, and 1 mg/mouse). Sacrifice mice on day 20, remove lungs, count lung surface nodules and calculate percent inhibition.
as §3

888mel cells = test: 888mel metastatic melanoma model (lung surface nodules); format: in vivo, nude mice
Description: as §1
For the metastatic model, harvest, wash and resuspend 888mel cultured cells in RPMI 1640 media (10% FBS heat inactivated), inject 888mel cells intravenously. On the second day after the tumor injection, administer to mice anti-TYRP1 antibodies or control human IgG. Sacrifice mice on day 20, remove lungs, count lung surface nodules and calculate percent inhibition.
For the subcutaneous model, harvest, wash and resuspend cultured 624mel cells, in a 50/50 solution of Matrigel and RPMI 1640 media (10% FBS heat inactivated). Inject 2×10^6 624mel cells into the left flank of nude mice. […]

CTA99: chimeric anti-TYRP1 antibody with TA99 variable regions and human constant region IgG1; SEQ ID NO 31 and 33
induction of CDC (in words) [1]: induce CDC | Human CDC (%) [1]: 94% | CDC percentage of cytotoxicity ([1]; antibody concentration 0.05 μg/mL): 9.5% | CDC percentage of cytotoxicity ([1]; antibody concentration 0.41 μg/mL): 53% | CDC percentage of cytotoxicity ([1]; antibody concentration 1.23 μg/mL): 54% | CDC percentage of cytotoxicity ([1]; antibody concentration 3.7 μg/mL): 95% | induction of ADCC (in words) [2]: induce ADCC | reduced metastasis (percent inhibition of lung nodules) (human SKmel23 cells; 200 μg/dose): 63% | reduced metastasis (percent inhibition of lung nodules) (human SKmel23 cells; 500 μg/dose): 75%

20D7: recombinant human monoclonal antibody, full length IgG1κ targeting TYRP1; heavy chain SEQ ID NO 29, light chain SEQ ID NO 32 [Antibody 20D7]
Human FcR binding (Human FcR): 110 pM | induction of CDC (in words) [1]: induce CDC | Human CDC (%) [1]: 100% | complement-mediated cell lysis (in words) ([1]; antibody concentration of 3.7 μg/mL): complete cell lysis | induction of ADCC (in words) [2]: induce ADCC | T/C (624mel xenograft; 624mel subcutaneous xenograft, 40 mg/kg twice per week): 21% | % T/C (624mel xenograft; Table 9, Subcutaneous, 624mel, antibody 40 mg/kg once per week, DTIC 5 mg/kg once per week): 50% | T/C (624mel xenograft; established 624mel tumors, 1 mg/mouse three times per week, day 16 post initiation of antibody treatment): 44% | T/C (SKmel28 xenografts; SKmel28 dose response, 6 mg/kg three times per week): 69% | T/C (SKmel28 xenografts; SKmel28 dose response, printed as 6 mg/kg and 20 mg/kg, three times per week): 50% | T/C (SKmel28 xenografts; SKmel28 dose response, printed as 6 mg/kg and 60 mg/kg, three times per week): 19% | T/C (SKmel28 xenografts; SKmel28 xenografts, vs human IgG control, day 43): 51% | Inhibition of lung metastases (B16BL6 murine melanoma; 200 μg/mouse): 65% | Inhibition of lung metastases (B16BL6 murine melanoma; 500 μg/mouse): 74% | Inhibition of lung metastases (B16BL6 murine melanoma; 1 mg/mouse): 95% | % inhibition (B16BL6 murine melanoma; Table 9, Metastatic, B16): 95% | reduced metastasis (percent inhibition of lung nodules) (human SKmel23 cells; 200 μg/dose): 58% | reduced metastasis (percent inhibition of lung nodules) (human SKmel23 cells; 500 μg/dose): 73% | % inhibition (human SKmel23 cells; Table 9, Metastatic, SKmel23): 80% | inhibition of lung surface metastasis (888mel cells; 888mel i.v. in nude mice, day 20): 77% | % inhibition (888mel cells; Table 9, Metastatic, 888 mel): 77%
